Results reported in patent US20090318456A1, “SUBSTITUTED PTERIDINES FOR THE TREATMENT AND PREVENTION OF VIRAL INFECTIONS” (Gilead Sciences, Inc., priority 2006, published 2009).
Read-outs that look alike come from different tables or passages of the source.

Columns and labels:
HCV replicon = test: Anti-HCV replicon assay (EC50, luciferase); assay type: cell-based, Hepatitis C virus (HCV)
Method: (§1) The anti HCV activity of specifically 2,4,6-trisubstituted pteridine derivatives was tested in a human hepatoma Huh-7 cell line harbouring a HCV replicon. The assay comprised the following steps:
(§2) Step 1: compound preparation and serial dilution involved the following alternatives, depending upon the water solubility of pteridine derivative being tested: • 1. with respect to water soluble 2,4,6-trisubstituted pteridine derivatives, 500 μL of solution in cell media (DMEM, 10% FBS, P/S, L-Glutamine) was prepared with a concentration that is twice the concentration of the starting final serial dilution concentration. 150 μL of the solution was added to the pre-specified wells in column 1 of a 96-well cell culture plate (PerkinElmer, white plate, cat. #6005181, for EC50 assay; black plate, cat. #6005182 for CC50 assay). The rest of the plate, i.e. columns 2-12, was filled with 100 μL of cell media. The plate was then placed on a Precision 2000 Workstation in order to start serial dilution. Pteridine compounds were diluted three times each step from column 1 to column 10. Column 11 was used as a blank control (no pteridine compound added). • 2. With respect to poorly water soluble pteridine derivatives, DMSO was used as a solvent, and serial dilution was performed in 50% DMSO in water, in a 384-well plate. A solution containing the relevant compound at 100-fold the concentration of the starting final serial dilution concentration was prepared in 50% DMSO in water and added to the pre-specified wells in column 1 of a polypropylene 384-well plate. This plate was then placed on a Precision 2000 Workstation in order to start serial dilution. After serial dilution, 2 μL of the solution was transferred from the 384-well plate to a 96-well cell culture plate containing 100 μL of cell media on a Biomek FX Workstation. The DMSO concentration in the final assay condition was 0.5% after cells have been added to the plate and the total volume in each well was brought to 200 μL. Step 2: to each well of the serial dilution plate prepared in step 1, 100 μL of cell media containing 6000 suspended Huh-7 HCV replicon cells was added with a Multidrop workstation. Plates were incubated for 3 days at 37° C. with 5% CO2. Step 3: detection: • 1) with respect to the EC50 assay, the media in a 96-well cell culture plate was aspirated with a Biotek EL405 plate-washer. A volume of 200 μL of a solution containing a 1:1 mixture of a cell-lysis buffer (commercially available from Promega, Luciferase Cell Culture Lysis 5× Reagent, cat. #E1531) and a luciferase substrate solution (commercially available from Promega, Luciferase Assay, cat. # E4550) was added to each well of the plate with Multidrop. The plate was incubated for 30 minutes at room temperature before the luminescence signal was measured with a TopCount plate-reader. • 2) with respect to the CC50 assay, 100 μL of a pre-mixed CellTiter-Glo (commercially available from Promega, cat. # G7572) solution was added directly to the cell culture in each well of the plate and the luminescence signal was measured with a TopCount plate-reader after 10 minutes of incubation at room temperature.
(§3) Results are expressed by the following data: • the 50% effective concentration (EC50), i.e. the concentration that protects 50% of the cell monolayer from virus-induced cythopathic effect, and • the 50% cytostatic concentration (CC50), i.e. the concentration that results in 50% inhibition of cell growth.

Huh-7 HCV replicon cells = test: CC50 assay (CellTiter-Glo) in Huh-7 HCV replicon cells; assay type: cell-based, human
Method: as §1, §2, §3

HIV IIIb strain = test: Anti-HIV assay in MT-4 cells; assay type: cell-based; conditions: MT-4 cells infected with HIV IIIb, 5 days, CellTiter-Glo
Method: The anti HIV activity of some of the pteridine compounds listed in example C was tested in MT-4 cells infected with HIV IIIb strain. The assay comprised the following steps: • Step 1 (sample preparation). The compound stock solutions as prepared for Example C were diluted in MT4 cell media at a concentration equal to twice the concentration of the HCV EC50 or CC50 (the highest concentration of the two was chosen) obtained in Example C. To pre-defined wells of a 384-well black cell culture plate (NUNC), a volume of 50 μL of the compound solution is added. Serial dilution is performed by the workstation across the plate. Each compound is serially diluted 5-fold in each step, for a total of 6 steps (7 total concentrations). Compounds are tested in triplicates within each plate. Negative control was performed using 40 μL cell media only. At the end of the serial dilution, each well on the plate contained 40 μL of media containing different concentrations of compounds. A volume of 20 μL was transferred to a new plate to duplicate the plate. • step 2 (starting the assay): the plates are transferred into the HIV laboratory. To each plate, a volume of 20 μL MT-4 cell suspension (10^5 cells/mL) is dispensed into each well of the plate with the Multidrop dispenser. The HIV IIIb stock solution was diluted 1 to 500 in cell media (2 μL of virus+998 μL of media). 100-120 μL of diluted virus was then added to 10 ml cell suspension (containing 106 MT-4 cells). 20 μL of this cell suspension/virus was dispensed to each well of the plates with the Multidrop dispenser. The plates were incubated at 37° C. for 5 days in the cell culture incubator in the HIV laboratory. • step 3 (detection): on day 5, 40 μL of the pre-prepared CellTiter-Glo reagent was added to each well of the plates using the Multidrop dispenser. The plates were incubated at room temperature for 10 minutes to stabilize the luminescence signal. The luminescence was measured on the Victor 2 plate reader with an integration time of 0.25-1 seconds per sample. […] It is clear from the table that none of the pteridine compounds tested is active against HIV.

[1] = CC50 assay (CellTiter-Glo) in Huh-7 HCV replicon cells; assay type: cell-based, human; conditions: human, Table 4
Method: as §1, §2, §3

[2] = Table 2, Huh-7 HCV replicon cells, 3 days, luciferase, read-out: EC50
[3] = Table 3, Huh-7 HCV replicon cells, 3 days, luciferase, read-out: EC50

Row | SMILES | EC50 (HCV replicon; [2]) [µM] | CC50 (Huh-7 HCV replicon cells; Table 2, 3 days) [µM] | EC50 (HIV IIIb strain) [µM] | further results
1 | COc1ccc(-c2cnc3nc(N)nc(N4CCOCC4)c3n2)cc1OC [Example 158] | < 0.3 | 10 to 20 | > 100 | –
2 | CCS(=O)(=O)Nc1cccc(-c2cnc3nc(N)nc(N4CCOCC4)c3n2)c1 [Example 201] | – | – | 17.8 | EC50 (HCV replicon; [3]): 0.3 to 1 µM; CC50 (Huh-7 HCV replicon cells; Table 3, 3 days): > 20 µM
3 | CCOc1nc(N)nc2ncc(-c3ccc(OC)c(OC)c3)nc12 [Example 134] | < 0.3 | > 20 | > 100 | –
4 | CCC(=O)Nc1ccc(-c2cnc3nc(N)nc(N4CCOCC4)c3n2)cc1 [Example 216] | – | – | > 100 | EC50 (HCV replicon; [3]): 0.3 to 1 µM; CC50 (Huh-7 HCV replicon cells; Table 3, 3 days): > 20 µM
5 | CCOc1nc(NCc2ccc(S(N)(=O)=O)cc2)nc2ncc(-c3ccc(F)cc3)nc12 [Example G, 4-{[4-Ethoxy-6-(4-fluoro-phenyl)-pteridin-2-ylamino]-methyl}-benzenesulfonamide] | – | – | – | EC50 (HCV replicon; Hepatitis C virus, 72 h, Table 4, Huh-7 HCV replicon cells, 3 days, luciferase, read-out: EC50): < 0.3 µM; CC50 at 3 days [1]: > 20 µM
6 | COc1ccc(-c2cnc3nc(N)nc(N4CCN(C)CC4)c3n2)cc1OC [Example 181] | < 0.3 | 10 to 20 | > 100 | –
7 | NS(=O)(=O)c1ccc(CNc2nc(NCC(F)(F)F)c3nc(-c4ccc(F)cc4)cnc3n2)cc1 [Example D, 4-{[6-(4-fluoro-phenyl)-4-(2,2,2-trifluoro-ethylamino)-pteridin-2-ylamino]-methyl}-benzenesulfonamide] | – | – | – | EC50 (HCV replicon; Hepatitis C virus, Huh-7, 72 h): < 0.3 µM; CC50 at 3 days [1]: > 20 µM
